Broadly, the inhibition is the relative decrease from the control value, in per cent. The term AUC denotes concentration integrated over time.

Counter-ions that a name gives are not always drawn. Like-named read-outs stand apart in the source and are kept apart here.

Seven molecules from patent US11465965B2, “Double-headed protease inhibitor” (UBE INDUSTRIES, LTD., priority 2017, dated 2022) can be followed below.

Data set [1] has as its target T1, Human recombinant enteropeptidase (Homo sapiens, UniProt P98073).
T1 construct: purchased BIO Vision Inc. 7529-50
As to the kind of experiment: Human enteropeptidase inhibition test. It counts as biochemical. To be noted: read-out: Inhibition rate (enteropeptidase); for inhibition at 0.001 µM: compound concentration 1 nM. How it is done:
(Test Example 1): Human Enteropeptidase Inhibition Test
Human recombinant enteropeptidase (manufactured by BIO Vision Inc., catalog no.: 7529-50) was diluted with an assay buffer (50 mM tricine (pH8.0), 0.01 W/V % Tween 20, 10 mM CaCl2) to prepare an […] enzyme solution. Then, 5FAM-Abu-Gly-Asp-Asp-Lys-Ile-Val-Gly-Gly-Lys (CPQ2)-Lys-Lys-NH2 (manufactured by CHINESE PEPTIDE COMPANY, purity: 94.5) was diluted with the assay buffer to prepare a 1.5 μM substrate solution. Each test compound was dissolved into DMSO, then diluted with the assay buffer 100 times, and further appropriately diluted with an assay buffer comprising 1% DMSO to prepare each compound solution. 10 μL of the compound solution, 15 μL of the assay buffer, and 50 μL of the substrate solution were added to a 96 well black plate (manufactured by Thermo Fisher Scientific Inc., code no.: 9502867), mixed, then 25 μL of the enzyme solution was added thereto, and mixed to start the reaction. Fluorescence intensities at excitation wavelength 485 nm and fluorescence wavelength 535 nm were measured by using a fluorescence plate reader (Flex station 3) (Test compound addition group). Also, the same reaction as described above except for not adding each test compound was carried out (Test compound non-addition group). Additionally, the same reaction as described above except for not adding each test compound and the enzyme was carried out (Control group). Inhibition rate was calculated by the following equation using fluorescence intensity after 20 minutes of reaction start. Inhibition rate (%)=(1−(fluorescence intensity of Test compound addition group−fluorescence intensity of Control group)÷(fluorescence intensity of Test compound non-addition group−fluorescence intensity of Control group))×100

Data set [2] addresses T2, Human recombinant trypsin (Homo sapiens, UniProt P07477).
T2 construct: purchased Wako Pure Chemical Industries, Ltd. 206-17171
Kind of data set: Human trypsin inhibition test. It counts as biochemical. Conditions: 20 minutes after reaction start, read-out: Inhibition rate (trypsin); for inhibition at 0.01 µM: compound concentration 10 nM; for inhibition at 0.1 µM: compound concentration 100 nM; for inhibition at 0.001 µM: compound concentration 1 nM. How it is done: (Test Example 2): Human Trypsin Inhibition Test
Human recombinant trypsin (manufactured by Wako Pure Chemical Industries, Ltd., code no.: 206-17171) was diluted with an assay buffer (0.1 M Tris-HCl (pH8.0), 0.15 M NaCl, 10 mM CaCl2, 0.05% Brij35) to prepare a 10 ng/mL enzyme solution. Then, Boc-Phe-Ser-Arg-MCA (manufactured by PEPTIDE INSTITUTE, INC., code no.: 3107-v) was diluted with the assay buffer to prepare a 40 μM substrate solution. Each test compound was dissolved into DMSO, then diluted with the assay buffer 100 times, and further appropriately diluted with an assay buffer comprising 1% DMSO to prepare each compound solution. 10 μL of the compound solution, 15 μL of the assay buffer, and 50 μL of the substrate solution were added to a 96 well black plate (manufactured by Thermo Fisher Scientific Inc., code no.: 9502867), mixed, and then 25 μL of the enzyme solution was added thereto, and mixed to start the reaction. Fluorescence intensities at excitation wavelength 355 nm and fluorescence wavelength of 460 nm were measured by using a fluorescence plate reader (Flex station 3) (Test compound addition group). Also, the same reaction as described above except for not adding each test compound was carried out (Test compound non-addition group). Additionally, the same reaction as described above except for not adding each test compound and the enzyme was carried out (Control group). Inhibition rate was calculated by the following equation using fluorescence intensity after 20 minutes of reaction start. Inhibition rate (%)=(1−(fluorescence intensity of Test compound addition group−fluorescence intensity of Control group)[…](fluorescence intensity of Test compound non-addition group−fluorescence intensity of Control group))×100

The next data set has as its system HFD-fed mouse. Kind of data set: Fecal protein concentration-increasing test by single administration using HFD-fed mouse. Conditions: 24 h, HFD-fed mice, single oral dose 30 mg/kg, vs vehicle group, read-out: Ratio for an increase of protein concentration in feces. It counts as in vivo. The source says: (Test Example 3): Fecal Protein Concentration-Increasing Test by Single Administration Using HFD-Fed Mouse
High fat diet-fed (HFD-fed) mice (D-12492 diet, male, ICR, 6 week old) were orally administered with a 0.5 W/V % methylcellulose suspension comprising each test compound (Compound administration group, 4 or 5 mice/group) or a 0.5 W/V % methylcellulose suspension (Compound non-administration group (Vehicle group), 5, 6, or 7 mice/group), and whole feces of the day were collected. Dried feces were dissolved into a 0.5N aqueous sodium hydroxide solution, followed by centrifugation at 3500 rpm. Then each protein concentration in the resulting supernatant was determined (Lowry method), and the ratio for an increase of protein concentration in feces was calculated by the following equation using the protein concentration in feces contained in 1 g of feces (mg/g feces). Ratio for an increase of protein concentration in feces−(average protein concentration in feces of Compound administration group)[…](average protein concentration in feces of Compound non-administration group)

For the next data set, the system named is DIO mouse. As to the kind of experiment: Anti-obesity effect test using DIO mouse. It counts as in vivo. Conditions: 336 h, DIO mice, vs vehicle group, read-out: Weight loss rate; for inhibition in vivo at 100 mg/kg: oral 100 mg/kg once daily for 2 weeks. How it is done:
(Test Example 4): Anti-Obesity Effect Test Using DIO Mouse
Diet-induced obesity (DIO) mice (D-12492 diet, male, C57BL-DIO, 26 to 28-week old) were orally administered with a 0.5 W/V % methylcellulose suspension comprising each test compound (Compound administration group, 5 or 6 mice/group) or a 0.5 W/V % methylcellulose suspension (Compound non-administration group (Vehicle group), 6 mice/group) once daily for 2 weeks. Weight loss rate was calculated by the following equation. Weight loss rate (%) of each Compound administration group−(1−average weight at the last day of the test of each Compound administration group/average weight at the last day of the test of Vehicle group)×100

Data set [3] in a line: Rat pharmacokinetic (PK) test (plasma concentration after oral administration). Conditions: male, SD.
Protocol: Each test compound was suspended in a 0.5 W/V % methylcellulose 400 solution to prepare a suspension, and the resulting suspension was orally administered to a male SD rat of 7 to 8-week old (weight: 180 to 250 g). After 0.25, 0.5, 1, 2, 4, 8, and 24 hour(s) of the administration of each test compound, blood (EDTA-added blood) was collected from jugular vein under isoflurane inhalation anesthesia. […] To the resulting blood plasma was added acetonitrile, a mixed solvent of acetonitrile and water (1:1 (V/V)), or a mixed solvent of acetonitrile and 0.1 M hydrochloric acid (1:1 (V/V)), then the resulting mixture was mixed at 750 rpm for 3 minutes in a shaker, and subjected to centrifugal separation at 3700 rpm for 2 minutes in a centrifuge to remove proteins. The resulting sample was subjected to LC (liquid chromatography)/MS (mass spectrometry) measurement under the following measurement conditions.
Each compound concentration in blood plasma at each time of blood collection was calculated according to the internal standard method, and, area under the plasma concentration vs. time curve (AUCall (Area Under Curve)) was calculated according to the trapezoidal method.
The LC and MS systems used in the present test are as follows.
LC: LC20 or LC30 HPLC system manufactured by Shimadzu Corporation
Column: Phenomenex Kinetex C18 (50×2.1 mm, 2.6 μm)
Column temperature: 40° C.
Mobile phase A: aqueous solution with 0.1% formic acid, Mobile phase B: 50% acetonitrile/methanol solution with 0.1% formic acid
[4] abbreviates: 20 minutes after reaction start.
Setting [5] is: compound concentration 10 nM, 20 minutes after reaction start.
[6] abbreviates: compound concentration 100 nM, 20 minutes after reaction start.

T1 sequence (P98073 whole entry): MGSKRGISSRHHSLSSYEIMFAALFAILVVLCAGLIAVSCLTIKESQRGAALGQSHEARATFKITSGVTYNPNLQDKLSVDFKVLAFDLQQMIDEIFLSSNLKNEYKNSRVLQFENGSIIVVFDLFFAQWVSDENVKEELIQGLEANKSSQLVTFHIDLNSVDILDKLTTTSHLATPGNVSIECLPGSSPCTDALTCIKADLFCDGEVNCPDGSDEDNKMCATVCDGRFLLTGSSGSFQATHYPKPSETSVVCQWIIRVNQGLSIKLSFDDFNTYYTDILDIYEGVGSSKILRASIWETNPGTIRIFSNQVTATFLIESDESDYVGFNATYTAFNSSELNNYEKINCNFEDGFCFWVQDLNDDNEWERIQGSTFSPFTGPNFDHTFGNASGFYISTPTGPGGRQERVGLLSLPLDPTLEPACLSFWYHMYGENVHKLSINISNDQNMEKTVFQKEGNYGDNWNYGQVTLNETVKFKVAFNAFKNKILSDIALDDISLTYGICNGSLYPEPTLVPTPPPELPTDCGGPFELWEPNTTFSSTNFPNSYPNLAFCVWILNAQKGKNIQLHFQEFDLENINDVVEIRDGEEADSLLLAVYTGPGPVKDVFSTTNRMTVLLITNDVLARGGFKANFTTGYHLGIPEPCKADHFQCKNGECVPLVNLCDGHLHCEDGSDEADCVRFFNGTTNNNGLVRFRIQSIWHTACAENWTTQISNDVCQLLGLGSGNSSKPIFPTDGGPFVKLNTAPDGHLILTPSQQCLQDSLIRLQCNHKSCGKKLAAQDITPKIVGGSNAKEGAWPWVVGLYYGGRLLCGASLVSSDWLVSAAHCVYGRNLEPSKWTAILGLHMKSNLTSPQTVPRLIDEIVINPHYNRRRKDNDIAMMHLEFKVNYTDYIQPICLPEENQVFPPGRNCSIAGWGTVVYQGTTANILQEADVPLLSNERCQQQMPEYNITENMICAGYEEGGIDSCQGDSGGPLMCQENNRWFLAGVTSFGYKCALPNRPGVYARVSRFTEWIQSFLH

In the case of `N=C(N)Nc1ccc(C(=O)Oc2ccc(CNS(=O)(=O)N(CCOCCOCCOCCOCCOCCOCCN([C@@H](CC(=O)O)C(=O)O)S(=O)(=O)NCc3ccc(OC(=O)c4ccc(NC(=N)N)cc4)cc3)[C@@H](CC(=O)O)C(=O)O)cc2)cc1` [6-(b), (2S,25S)-3,24-bis(N-(4-((4-guanidinobenzoyl)oxy)benzyl)sulfamoyl)-6,9,12,15,18,21-hexaoxa-3,24-diazahexacosane-1,2,25,26-tetracarboxylic acid trifluoroacetate], in data set [1], the inhibition at 0.01 µM is not below 50% and the inhibition at 0.1 µM is not below 50%. Moreover, in data set [2], the inhibition at 0.01 µM is not below 50% and the inhibition at 0.1 µM was not below 50%. Further, the response vs control in vivo at 30 mg/kg with HFD-fed mouse is not below 130%.
In the case of `N=C(N)Nc1ccc2c(c1)CCCOc1c(cccc1C(=O)N(CCOCCOCCN(C(=O)c1cccc3c1OCCCc1cc(NC(=N)N)ccc1C(=O)O3)C(CC(=O)O)C(=O)O)C(CC(=O)O)C(=O)O)OC2=O` (centres unmarked) [19-(b), 3,12-bis(10-guanidino-13-oxo-6,7,8,13-tetrahydrodibenzo[b,f][1,4]dioxecin-4-carbonyl)-6,9-dioxa-3,12-diazatetradecane-1,2,13,14-tetracarboxylic acid trifluoroacetate], the inhibition at 0.001 µM in data set [1] (setting [4]) and in data set [2] was not below 50% each time. Also, the inhibition at 0.01 µM in data set [1] (setting [5]) and in data set [2] was not below 50% each time. For the same molecule, the inhibition at 0.1 µM in data set [1] (setting [6]) and in data set [2] was not below 50% in each case. Moreover, the inhibition in vivo at 30 mg/kg in the data set with DIO mouse (oral 30 mg/kg once daily for 2 weeks) was not below 4%. This molecule came in with an AUC in data set [3] (10 mg/kg) not above 100 ng·h/mL.
As for `N=C(N)Nc1ccc(C(=O)Oc2ccc(CNS(=O)(=O)N(CCOCCOCCOCCN([C@@H](CC(=O)O)C(=O)O)S(=O)(=O)NCc3ccc(OC(=O)c4ccc(NC(=N)N)cc4)cc3)[C@@H](CC(=O)O)C(=O)O)cc2)cc1` [3-(b), (2S,163)-3,15-bis(N-(4-((4-guanidinobenzoyl)oxy)benzyl)sulfamoyl)-6,9,12-trioxa-3,15-diazaheptadecane-1,2,16,17-tetracarboxylic acid trifluoroacetate], the inhibition at 0.001 µM in data set [1] (setting [4]) and in data set [2] was not below 50% throughout. For the same molecule, the inhibition at 0.01 µM in data set [1] (setting [5]) and in data set [2] was not below 50% each time. For the same molecule, the inhibition at 0.1 µM in data set [1] (setting [6]) and in data set [2] was not below 50% in each case. Further, the response vs control in vivo at 30 mg/kg in the data set with HFD-fed mouse was not below 130%.
As to `N=C(N)Nc1ccc(C(=O)Oc2ccc(CNS(=O)(=O)N(CCCCN([C@@H](CC(=O)O)C(=O)O)S(=O)(=O)NCc3ccc(OC(=O)c4ccc(NC(=N)N)cc4)cc3)[C@@H](CC(=O)O)C(=O)O)cc2)cc1` [8-(b), (2S,2′S)-2,2′-(butane-1,4-diylbis((N-(4-((4-guanidinobenzoyl)oxy)benzyl)sulfamoyl)azanediyl))disuccinic acid trifluoroacetate], the inhibition at 0.001 µM in data set [1] (setting [4]) and in data set [2] was not below 50% throughout. The inhibition at 0.01 µM in data set [1] (setting [5]) and in data set [2] was not below 50% each time. Further, the inhibition at 0.1 µM in data set [1] (setting [6]) and in data set [2] was not below 50% each time. In addition, the inhibition in vivo at 100 mg/kg in the data set with DIO mouse is not below 4%. The molecule also yielded an exposure (AUC) in data set [3] (10 mg/kg) not above 100 ng·h/mL.
Take `N=C(N)Nc1ccc(C(=O)Oc2ccc(CNS(=O)(=O)N(CCCCN([C@@H](CC(=O)O)C(=O)O)S(=O)(=O)NCc3ccc(OC(=O)c4ccc(NC(=N)N)cc4)cc3)[C@@H](CC(=O)O)C(=O)O)cc2)cc1` [8-(c), (2S,2′S)-2,2′-(butane-1,4-diylbis((N-(4-((4-guanidinobenzoyl)oxy)benzyl)sulfamoyl)azanediyl))disuccinic acid hydrochloride]: in the data set on HFD-fed mouse, the response vs control in vivo at 30 mg/kg was not below 130%.
As for `N=C(N)Nc1ccc(C(=O)Oc2ccc(CNS(=O)(=O)N(Cc3cccc(C(=O)NCCOCCOCCOCCOCCNC(=O)c4cccc(CN([C@@H](CC(=O)O)C(=O)O)S(=O)(=O)NCc5ccc(OC(=O)c6ccc(NC(=N)N)cc6)cc5)c4)c3)[C@@H](CC(=O)O)C(=O)O)cc2)cc1` [18-(b), (2S,2′S)-2,2′-((((5,8,11,14-tetraoxa-2,17-diazaoctadecane-1,18-dioyl)bis(3,1-phenylene))bis(methylene))bis(N-(4-((4-guanidinobenzoyl)oxy)benzyl)sulfamoyl)azanediyl))disuccinic acid trifluoroacetate], in data set [1], the inhibition at 0.01 µM is not below 50% and the inhibition at 0.1 µM is not below 50%. Moreover, in data set [2], the inhibition at 0.001 µM was not below 50%, the inhibition at 0.01 µM is not below 50% and the inhibition at 0.1 µM is not below 50%. In addition, the inhibition in vivo at 90 mg/kg with DIO mouse (oral 90 mg/kg once daily for 2 weeks) is not below 4%. The molecule further had an exposure (AUC) in data set [3] (9 mg/kg) not above 100 ng·h/mL.
On to `Cl.N=C(N)Nc1ccc(C(=O)Oc2ccc(CNS(=O)(=O)N(CCOCCOCCOCCOCCOCCN([C@@H](CC(=O)O)C(=O)O)S(=O)(=O)NCc3ccc(OC(=O)c4ccc(NC(=N)N)cc4)cc3)[C@@H](CC(=O)O)C(=O)O)cc2)cc1` [5-(c), (2S,22S)-3,21-bis(N-(4-((4-guanidinobenzoyl)oxy)benzyl)sulfamoyl)-6,9,12,15,18-pentaoxa-3,21-diazatricosane-1,2,22,23-tetracarboxylic acid hydrochloride], for which the inhibition in vivo at 100 mg/kg in the data set on DIO mouse was not below 4%. This molecule also showed an exposure (AUC) in data set [3] (10 mg/kg) not above 100 ng·h/mL.
